Data taken from publication PMC11845477, “Exploring the principles behind antibiotics with limited resistance” (Nature Communications, 2025).

Key:
[1] = system: P. aeruginosa ATCC BAA-3107 (SEN) and P. aeruginosa LESB58 (MDR); experiment: microbe, parasite or virus in culture; assay type: cell-based, Pseudomonas aeruginosa; settings: for MIC: Pseudomonas aeruginosa, across three biological replicates
Description: (§1) This study focused on multiple bacterial strains, as follows. For the FoR and ALE experiments, 2 strains per species were chosen: E. coli ATCC 25922, K. pneumoniae ATCC 10031, A. baumannii ATCC 17978, and P. aeruginosa ATCC BAA-3107 as sensitive (SEN) strains, and E. coli NCTC13846, K. pneumoniae ATCC 700603, A. baumannii ATCC BAA-1605 and P. aeruginosa LESB58 as multi-drug resistant (MDR) strains. Functional metagenomic screens were performed with E. coli ATCC 25922 and K. pneumoniae ATCC 10031 strains. To determine the dose-kill properties of the different antibiotics, an E. coli strain (ATCC 25922) expressing a yellow fluorescent protein (pZS2R, YFP, CHL^R) and a red fluorescent protein (pZS2R, mCherry, CHL^R) was used.
(§2) Unless otherwise indicated, cation-adjusted Mueller-Hinton Broth 2 (MHB, Millipore) medium was used throughout the study, except for SCH79797 (SCH).
(§3) A robotic liquid handling system was used to automatically prepare a 11 to 16-step serial dilution in 384-well microtiter plates (Greiner). A final concentration of 5 × 10^5 bacterial cells per mL were inoculated into each well containing 60 µL MHB medium. Bacterial cultures were incubated at 37 °C with continuous shaking (Infors shaker, 900 rpm with 3 mm throw) for 18 hours (2 replicates from each). Cell growth was monitored by measuring the optical density (OD600 values, using Biotek Synergy microplate reader). MIC was defined as the antibiotic concentration of complete growth inhibition (i.e., OD600 < 0.05). Relative MIC was calculated as follows:1 relativeMIC=MICevolved/MICancestor

[2] = system: K. pneumoniae ATCC 10031 (SEN) and K. pneumoniae ATCC 700603 (MDR); experiment: microbe, parasite or virus in culture; assay type: cell-based, Klebsiella pneumoniae; settings: for MIC: Klebsiella pneumoniae, across three biological replicates
Description: as §1, §2, §3

[3] = system: E. coli ATCC 25922 (SEN) and E. coli NCTC13846 (MDR); experiment: microbe, parasite or virus in culture; assay type: cell-based, Escherichia coli; settings: for MIC: Escherichia coli, across three biological replicates
Description: as §1, §2, §3

[4] = system: E. coli ATCC 25922 (SEN) and E. coli NCTC13846 (MDR); experiment: Adaptive laboratory evolution (ALE), relative MIC of evolved lines; assay type: cell-based, Escherichia coli; settings: for Relative MIC (log10): EC-SEN (Escherichia coli ATCC 25922)
From the text: Using the same set of bacterial strains, we initiated adaptive laboratory evolution with the aim to maximize the level of antibiotic resistance in the populations achieved during a longer, but fixed time period.
An established protocol for adaptive laboratory evolution[46],[73] was followed to propagate populations with the highest resistance levels. Starting with an antibiotic concentration that caused approximately 50% growth inhibition, ten parallel populations for each antibiotic-ancestor strain combination were grown for 72 hours at 37 °C with continuous shaking (300 RPM). MHB broth medium was used unless stated otherwise. After each incubation, 20 µl of each culture was transferred to four new wells containing fresh medium with increasing antibiotic concentrations (0.5×, 1×, 1.5×, and 2.5× the previous concentration) in a chessboard layout to monitor potential cross-contamination. Growth was monitored by measuring OD600 using a Biotek Synergy 2 microplate reader, and only populations grown in the highest drug concentration with an OD600 > 0.2 were transferred further.
as §3, with “relativeMIC=MICevolved/MICancestor […]” for “relativeMIC=MICevolved/MICancestor”
Supplementary Figure 4. Resistance levels following adaptive laboratory evolution across bacterial strains. The level of resistance was measured as the fold change in relative MIC between evolved and ancestral strains after ~60 days of adaptive laboratory evolution. Data are grouped by bacterial strain (A. baumannii (AB), E. coli (EC), K. pneumoniae (KP), and P. aeruginosa (PA)) and categorized as either multidrug-resistant (MDR) or sensitive (SEN). Each data point represents a laboratory evolved line, and boxplots show the median, first and third quartiles, with whiskers indicating the 5th and 95th percentiles.
Statistical analysis was performed using two-sided Dunn’s post-hoc test with Benjamini-Hochberg correction for multiple comparisons (****/ ***/ **/ * indicates p < 0.0001/ 0.001/ 0.01/ 0.05). For detailed information on antibiotic and bacterial species, see Supplementary Table 1. For mode of action groups, refer to Table 1. Source data are provided as a Source Data file.
(1 picture or pasted object on this page, not shown here)

[5] = ATCCBAA3107, Pseudomonas aeruginosa ATCC BAA-3107 (PA-SEN)
[6] = ATCCBAA3107, Pseudomonas aeruginosa LESB 58 (PA-MDR)
[7] = Klebsiella pneumoniae ATCC 10031 (KP-SEN), ancestor strain
[8] = Klebsiella pneumoniae ATCC 10031 (KP-SEN), ancestor strain, sheet fig 2a
[9] = Klebsiella pneumoniae ATCC 700603 (KP-MDR), ancestor strain
[10] = Klebsiella pneumoniae ATCC 700603 (KP-MDR), ancestor strain, sheet fig 2a
[11] = Klebsiella pneumoniae ATCC 10031 (KP-SEN)
[12] = Klebsiella pneumoniae ATCC 700603 (KP-MDR)
[13] = Escherichia coli ATCC 25922 (EC-SEN)
[14] = Escherichia coli NCTC 13846 (EC-MDR)
[15] = P. aeruginosa LESB 58 (PA-MDR), ancestor strain, sheet fig 2a
[16] = Escherichia coli ATCC 25922 (EC-SEN), ancestor strain, sheet fig 2a
[17] = P. aeruginosa ATCC BAA 3107 (PA-SEN), ancestor strain, sheet fig 2a

Structure (SMILES): CN[C@@H]1[C@@H](O[C@H]2O[C@H](CO)[C@@H](N)[C@H](O)[C@H]2O)OC2C[C@@H](N)[C@@H](O[C@H]3[C@H](O)[C@@H](O)[C@H](N)C[C@@H]3N)OC2[C@@H]1O (stereo partly drawn) [Apramycin]
- MIC [1, 5]: 8 µg/mL
- MIC [1, 6]: > 32 µg/mL
- MIC of ancestor [2, 7]: 2 µg/mL
- MIC of ancestor [2, 8]: 2 µg/mL
- MIC of ancestor [2, 9]: 4 µg/mL
- MIC of ancestor [2, 10]: 4 µg/mL
- MIC [2, 11]: 2 µg/mL
- MIC [2, 12]: 4 µg/mL
- MIC [3, 13]: 16 µg/mL
- MIC [3, 14]: 8 µg/mL

Structure (SMILES): Nc1nc(-n2cc(C(=O)O)c(=O)c3cc(F)c(N4CC(O)C4)c(Cl)c32)c(F)cc1F [Delafloxacin]
- Relative MIC ([4]; EC-SEN (ATCC 25922), evolved line 1, MIC of evolved line / MIC of ancestor): 128
- Relative MIC ([4]; EC-SEN (ATCC 25922), evolved line 2, MIC of evolved line / MIC of ancestor): 1024
- Relative MIC ([4]; EC-SEN (ATCC 25922), evolved line 3, MIC of evolved line / MIC of ancestor): 512
- Relative MIC ([4]; EC-SEN (ATCC 25922), evolved line 4, MIC of evolved line / MIC of ancestor): 512
- Relative MIC ([4]; EC-SEN (ATCC 25922), evolved line 5, MIC of evolved line / MIC of ancestor): 128
- Relative MIC ([4]; EC-SEN (ATCC 25922), evolved line 6, MIC of evolved line / MIC of ancestor): 1024
- Relative MIC ([4]; EC-SEN (ATCC 25922), evolved line 7, MIC of evolved line / MIC of ancestor): 2048
- Relative MIC ([4]; EC-SEN (ATCC 25922), evolved line 8, MIC of evolved line / MIC of ancestor): 256
- Relative MIC ([4]; EC-SEN (ATCC 25922), evolved line 9, MIC of evolved line / MIC of ancestor): 2048
- Relative MIC ([4]; EC-SEN (ATCC 25922), evolved line 10, MIC of evolved line / MIC of ancestor): 512
- Relative MIC (log10) ([4]; evolved line 2 adapted to the named antibiotic): 3.0103
- Relative MIC (log10) ([4]; evolved line 6 adapted to the named antibiotic): 3.0103
- Relative MIC (log10) ([4]; evolved line 7 adapted to the named antibiotic): 3.311
- Relative MIC (log10) ([4]; evolved line 9 adapted to the named antibiotic): 3.311
- Relative MIC (log10) ([4]; evolved line 10 adapted to the named antibiotic): 2.709
- Relative MIC ([4]; Escherichia coli ATCC 25922 (EC-SEN), evolved line 1): 128
- Relative MIC ([4]; Escherichia coli ATCC 25922 (EC-SEN), evolved line 2): 1024
- Relative MIC ([4]; Escherichia coli ATCC 25922 (EC-SEN), evolved line 3): 512
- Relative MIC ([4]; Escherichia coli ATCC 25922 (EC-SEN), evolved line 4): 512
- Relative MIC ([4]; Escherichia coli ATCC 25922 (EC-SEN), evolved line 5): 128
- Relative MIC ([4]; Escherichia coli ATCC 25922 (EC-SEN), evolved line 6): 1024
- Relative MIC ([4]; Escherichia coli ATCC 25922 (EC-SEN), evolved line 7): 2048
- Relative MIC ([4]; Escherichia coli ATCC 25922 (EC-SEN), evolved line 8): 256
- Relative MIC ([4]; Escherichia coli ATCC 25922 (EC-SEN), evolved line 9): 2048
- Relative MIC ([4]; Escherichia coli ATCC 25922 (EC-SEN), evolved line 10): 512
- MIC of ancestor [1, 15]: 2 µg/mL
- MIC of ancestor ([1]; Pseudomonas aeruginosa ATCC BAA 3107 (PA-SEN), ancestor strain): 0.0156 µg/mL
- MIC of ancestor ([1]; Pseudomonas aeruginosa LESB 58 (PA-MDR), ancestor strain): 2 µg/mL
- MIC [1, 5]: < 0.0312 µg/mL
- MIC [1, 6]: 2 µg/mL
- MIC of ancestor [2, 7]: 0.00195 µg/mL
- MIC of ancestor [2, 8]: 0.00195 µg/mL
- MIC of ancestor [2, 9]: 1 µg/mL
- MIC of ancestor [2, 10]: 1 µg/mL
- MIC [2, 11]: 0.00195 µg/mL
- MIC [2, 12]: 1 µg/mL
- MIC of ancestor ([3]; Escherichia coli ATCC 25922 (EC-SEN), ancestor strain): 0.0312 µg/mL
- MIC of ancestor [3, 16]: 0.0312 µg/mL
- MIC [3, 13]: 0.0312 µg/mL
- MIC [3, 14]: 16 µg/mL

Structure (SMILES): C[C@@H](O)[C@H]1C(=O)N2C(C(=O)O)=C(S[C@@H]3CN[C@H](C(=O)N(C)C)C3)[C@H](C)[C@H]12 [Meropenem]
- MIC of ancestor [1, 17]: 0.0312 µg/mL
- MIC of ancestor [1, 15]: 2 µg/mL
- MIC of ancestor ([1]; PA-MDR, Pseudomonas aeruginosa LESB 58, ancestor strain): 2 µg/mL
- MIC of ancestor ([1]; PA-SEN, Pseudomonas aeruginosa ATCC BAA 3107, ancestor strain): 0.0312 µg/mL
- MIC [1, 5]: 0.0312 µg/mL
- MIC [1, 6]: 2 µg/mL
- MIC of ancestor ([2]; KP-MDR, Klebsiella pneumoniae ATCC 700603, ancestor strain): 0.0625 µg/mL
- MIC of ancestor [2, 8]: 0.0312 µg/mL
- MIC of ancestor [2, 10]: 0.0625 µg/mL
- MIC [2, 11]: 0.0312 µg/mL
- MIC [2, 12]: 0.0625 µg/mL
- MIC of ancestor ([3]; E. coli NCTC 13846 (EC-MDR), ancestor strain, sheet fig 2a): 0.0156 µg/mL
- MIC of ancestor ([3]; EC-MDR, Escherichia coli NCTC 13846, ancestor strain): 0.0156 µg/mL
- MIC of ancestor ([3]; EC-SEN, Escherichia coli ATCC 25922, ancestor strain): 0.0312 µg/mL
- MIC of ancestor [3, 16]: 0.0312 µg/mL
- MIC [3, 13]: 0.0312 µg/mL
- MIC [3, 14]: < 0.0312 µg/mL

Structure (SMILES): COc1c(N2C[C@@H]3CCCN[C@@H]3C2)c(F)cc2c(=O)c(C(=O)O)cn(C3CC3)c12 [Moxifloxacin]
- MIC of ancestor [1, 17]: 1 µg/mL
- MIC of ancestor ([1]; Pseudomonas aeruginosa ATCC BAA 3107 (PA-SEN), ancestor): 1 µg/mL
- MIC [1, 5]: 1 µg/mL
- MIC [1, 6]: 32 µg/mL
- MIC of ancestor ([2]; Klebsiella pneumoniae ATCC 10031 (KP-SEN), ancestor): 0.00781 µg/mL
- MIC of ancestor [2, 8]: 0.00781 µg/mL
- MIC of ancestor ([2]; Klebsiella pneumoniae ATCC 700603 (KP-MDR), ancestor): 1 µg/mL
- MIC of ancestor [2, 10]: 1 µg/mL
- MIC [2, 11]: 0.00781 µg/mL
- MIC [2, 12]: 1 µg/mL
- MIC of ancestor ([3]; Escherichia coli ATCC 25922 (EC-SEN), ancestor): 0.0312 µg/mL
- MIC of ancestor [3, 16]: 0.0312 µg/mL
- MIC [3, 13]: 0.0312 µg/mL
- MIC [3, 14]: > 32 µg/mL
